Results taken from patent publication US20040110138A1, “Method for the detection of multiple genetic targets” (University of Ottawa, priority 2002, published 2004).

Tested on: coagulase-negative Staphylococci (CoNS)
Experiment: Oxacillin MIC by agar dilution (NCCLS M100-S10, M7), isolate retest
Format: cell-based
Description: Blood culture bottles that were flagged as positive by the BacT/Alert system (Organon Teknika Corp., Durham N.C.) were processed by the Microbiology laboratory using standard microbiologic methods (Kloos & Bannerman, 1999). S. aureus was identified by a positive tube coagulase test. Oxacillin susceptibility for S. aureus was determined using the oxacillin salt agar screen method (NCCLS M100-S10, M7) and for coagulase-negative Staphylococci (CoNS) using disk diffusion testing (NCCLS M100-S10, M2).
In cases where there were discrepancies between the mecA PCR result of the blood culture bottle contents and the initial susceptibility result for the isolate recovered from the bottle, the isolate was re-tested for the mecA gene, oxacillin MIC was determined by agar dilution (NCCLS M100-S10, M7) and disk diffusion testing for oxacillin was repeated (NCCLS M100-S10, M2).

## Cc1onc(-c2ccccc2)c1C(=O)N[C@@H]1C(=O)N2[C@@H]1SC(C)(C)[C@@H]2C(=O)O [Oxacillin]
Isolate from bottle 8, initially reported as MS-CoNS
  Oxacillin MIC: 2.0
Isolate from bottle 10, initially reported as MR-CoNS
  Oxacillin MIC: 0.5
